The source made the active and inactive calls.
Legend:
[1] = biological target: Mitogen-activated protein kinase 10 (Homo sapiens, UniProt P53779); assay: Dose response biochemical screening assay for inhibitors of c-Jun N-Terminal Kinase 3 (JNK3). [Related pubchem assays: 746 ]
Protein Tat = biological target: T1, Protein Tat (Human immunodeficiency virus type 1 group M subtype B (isolate HXB2)(HIV-1), UniProt P04608); format: functional;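 note: tat binding to TAR RNA read out by fluorescence polarization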
T1 sequence (P04608 whole entry): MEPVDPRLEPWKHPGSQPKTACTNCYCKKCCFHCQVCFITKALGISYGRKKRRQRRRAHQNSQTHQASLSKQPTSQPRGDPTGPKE

[2] = Trypanosoma cruzi growth suppression in host cells – NIH3T3 host cells, beta-gal luminescence, confirmation (AID 2044); format: functional, cell-based;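 note: intracellular parasites grown in NIH/3T3 mouse fibroblasts as host cells; luminescent beta-galactosidase reporter signal from transgenic T. cruzi replicating inside host cells; inhibitors lower the luminescence signal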
[3] = NIH3T3 cell viability loss – ATP luminescence, mouse fibroblasts, counter-screen, dose response (AID 2010); format: functional, cell-based;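 note: cells exposed to compound for about 90 hours before reading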
cells [4] = assay: cells
[5] = biological target: T2, Tyrosine-protein phosphatase non-receptor type 7 (Homo sapiens, UniProt P35236); assay: HePTP tyrosine phosphatase activity blockers – biochemical, absorbance, leukemia target, primary screen (AID 521); format: functional
T2 sequence (P35236 whole entry): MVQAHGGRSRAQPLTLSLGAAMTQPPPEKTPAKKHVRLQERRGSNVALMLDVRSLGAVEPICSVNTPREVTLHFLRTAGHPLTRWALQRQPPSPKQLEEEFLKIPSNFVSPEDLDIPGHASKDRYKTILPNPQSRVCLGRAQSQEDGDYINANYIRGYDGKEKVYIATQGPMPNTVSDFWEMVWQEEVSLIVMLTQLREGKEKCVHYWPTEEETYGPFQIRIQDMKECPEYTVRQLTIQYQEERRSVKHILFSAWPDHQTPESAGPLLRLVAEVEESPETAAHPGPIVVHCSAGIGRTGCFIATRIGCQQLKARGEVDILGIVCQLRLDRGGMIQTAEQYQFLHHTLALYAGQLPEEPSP

[6] = biological target: Glyceraldehyde-3-phosphate dehydrogenase (Homo sapiens, UniProt P04406)
Bcl-2-related protein A1 [7] = biological target: T3, Bcl-2-related protein A1 (Mus musculus, UniProt Q07440); assay: small-molecule antagonists of Bfl-1/BH3 interaction – biochemical, TR-FRET, mouse Bfl-1, confirmation (AID 621);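 note: TR-FRET binding of GST-Bfl-1 to FITC-labelled Bid peptide via terbium antibody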
T3 sequence (Q07440 whole entry): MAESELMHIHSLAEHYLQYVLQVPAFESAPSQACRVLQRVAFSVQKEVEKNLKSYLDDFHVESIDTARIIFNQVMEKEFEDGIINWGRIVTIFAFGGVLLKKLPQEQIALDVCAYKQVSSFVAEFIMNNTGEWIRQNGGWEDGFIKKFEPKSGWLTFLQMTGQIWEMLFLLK

Bcl-2-related protein A1 [8] = biological target: T3, Bcl-2-related protein A1; assay: Bfl-1 binding inhibitors, SAR follow-up, biochemical, fluorescence polarization (AID 1070)
[9] = NIH-3T3 fibroblast cytotoxicity, dose response, cytotoxicity control, cell-based, fluorescence, Alamar Blue, secondary assay (AID 2327); format: functional;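 note: NIH-3T3 mouse fibroblasts cultured with fluconazole at 8 µg/mL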
[10] = fluconazole-exposed Candida albicans growth modulators – fluorescence, retest, confirmation (AID 2467); format: functional, cell-based
[11] = biological target: T4, Epstein-Barr nuclear antigen 1 (Epstein-Barr virus (strain B95-8) (HHV-4) (Human herpesvirus 4), UniProt P03211); assay: inhibition of EBV nuclear antigen 1 DNA binding – biochemical, fluorescence polarization, 1536-well, dose response (AID 2381); set-up: species or system human gammaherpesvirus 4;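 note: fluorescence polarization of a Cy5 DNA probe bound by EBNA-1 protein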
T4 sequence (P03211 whole entry): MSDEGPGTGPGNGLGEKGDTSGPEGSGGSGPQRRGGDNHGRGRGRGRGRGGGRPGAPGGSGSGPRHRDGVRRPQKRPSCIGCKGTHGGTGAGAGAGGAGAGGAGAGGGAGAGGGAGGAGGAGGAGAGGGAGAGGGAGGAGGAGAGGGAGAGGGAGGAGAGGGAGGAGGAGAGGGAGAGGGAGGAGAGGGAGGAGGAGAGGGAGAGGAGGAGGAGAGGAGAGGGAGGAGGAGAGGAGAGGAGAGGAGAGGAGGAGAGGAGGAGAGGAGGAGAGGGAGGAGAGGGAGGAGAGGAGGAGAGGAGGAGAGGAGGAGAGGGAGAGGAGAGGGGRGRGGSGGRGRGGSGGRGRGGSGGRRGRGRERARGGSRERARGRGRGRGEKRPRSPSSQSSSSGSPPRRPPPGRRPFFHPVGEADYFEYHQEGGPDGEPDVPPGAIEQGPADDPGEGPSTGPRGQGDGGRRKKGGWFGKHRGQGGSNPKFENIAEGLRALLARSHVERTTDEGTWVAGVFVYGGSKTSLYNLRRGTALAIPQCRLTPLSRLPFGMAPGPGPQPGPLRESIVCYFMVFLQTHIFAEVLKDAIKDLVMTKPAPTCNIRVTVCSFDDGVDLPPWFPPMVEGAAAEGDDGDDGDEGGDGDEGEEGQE

[12] = biological target: T5, Lytic switch protein BZLF1 (Epstein-Barr virus (strain B95-8) (HHV-4) (Human herpesvirus 4), UniProt P03206); assay: inhibition of BZLF1 ZTA DNA binding – biochemical, fluorescence polarization, Epstein-Barr virus, 1536-well, counter-screen for EBNA-1 inhibitor project, dose response (AID 2377); set-up: species or system human gammaherpesvirus 4;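 note: fluorescence polarization of Cy5-labelled ZRE DNA probe bound by purified Zta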
T5 sequence (P03206 whole entry): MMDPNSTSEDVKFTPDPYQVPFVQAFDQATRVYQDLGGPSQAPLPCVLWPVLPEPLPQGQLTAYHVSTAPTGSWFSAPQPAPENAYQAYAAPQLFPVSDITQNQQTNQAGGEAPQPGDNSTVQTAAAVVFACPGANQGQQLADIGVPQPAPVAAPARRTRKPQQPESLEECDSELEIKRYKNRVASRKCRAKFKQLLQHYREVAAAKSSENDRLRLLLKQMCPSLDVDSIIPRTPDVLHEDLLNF

[13] = biological target: T6, Mannose-6-phosphate isomerase (Homo sapiens, UniProt P34949); assay: MPI inhibition at elevated mannose 6-phosphate – biochemical, fluorescence intensity, high mannose 6-phosphate, primary screen (AID 1220)
T6 sequence (P34949 whole entry): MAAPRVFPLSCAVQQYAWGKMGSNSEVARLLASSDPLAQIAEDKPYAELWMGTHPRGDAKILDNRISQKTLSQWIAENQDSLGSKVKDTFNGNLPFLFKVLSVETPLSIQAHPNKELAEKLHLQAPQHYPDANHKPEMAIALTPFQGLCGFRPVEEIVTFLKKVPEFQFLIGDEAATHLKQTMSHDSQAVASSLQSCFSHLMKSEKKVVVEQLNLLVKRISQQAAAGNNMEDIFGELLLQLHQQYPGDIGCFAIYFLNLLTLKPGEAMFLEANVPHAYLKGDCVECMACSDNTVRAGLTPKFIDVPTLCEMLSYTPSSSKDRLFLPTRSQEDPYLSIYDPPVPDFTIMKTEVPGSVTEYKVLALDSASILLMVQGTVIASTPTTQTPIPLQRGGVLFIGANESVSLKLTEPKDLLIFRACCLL

cells [14] = format: functional, cell-based
[15] = biological target: T7, Trace amine-associated receptor 1 (Homo sapiens, UniProt Q96RJ0); assay: Fluorescence-based cell-based high throughput dose response assay to identify agonists of the human trace amine associated receptor 1 (TAAR1).; format: functional
T7 sequence (Q96RJ0 whole entry): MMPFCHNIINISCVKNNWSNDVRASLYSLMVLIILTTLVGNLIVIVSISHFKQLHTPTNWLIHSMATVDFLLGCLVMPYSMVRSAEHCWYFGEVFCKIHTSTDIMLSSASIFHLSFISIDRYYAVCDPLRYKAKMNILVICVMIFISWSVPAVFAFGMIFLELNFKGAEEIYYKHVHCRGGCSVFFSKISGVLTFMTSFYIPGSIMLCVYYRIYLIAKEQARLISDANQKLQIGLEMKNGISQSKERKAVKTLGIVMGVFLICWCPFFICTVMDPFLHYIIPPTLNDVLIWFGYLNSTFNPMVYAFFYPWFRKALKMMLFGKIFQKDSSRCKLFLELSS

[16] = biological target: T7, Trace amine-associated receptor 1; assay: Counterscreen for agonists of the human trace amine associated receptor 1 (hTAAR1): Fluorescence-based cell-based high throughput dose response assay to identify hTAAR1 agonist that also desensitize TAAR1 receptor response.; format: functional
cells [17] = format: functional, cell-based; remark: listed apart in the source
[18] = growth inhibition of yeast DHODH-expressing 3D7 parasites – SYBR Green, dry powder samples, dose response (AID 1159570); format: functional, cell-based;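 note: parasite growth measured after 72 hours of compound exposure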
[19] = P. falciparum Dd2 growth inhibitors, dose response, SYBR Green, cherry-picked samples (AID 1159567); format: functional, cell-based
[20] = Dd2 malaria parasite growth inhibition potency – SYBR Green, dry powder samples, dose response (AID 1159566); format: functional, cell-based;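 note: potency for growth inhibition with lower SYBR green DNA signal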
[21] = growth inhibition of PfATP4-mutant resistant parasites – NITD609-resistant line, SYBR Green, dry powder, dose response (AID 1159571); format: functional, cell-based;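 note: parasites synchronized at ring stage by sorbitol before testing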
Vero = assay: mammalian cell viability reduction – secondary assay, cytotoxicity control for West Nile virus antiviral project, dose response (AID 1650); format: functional; settings: Chlorocebus sabaeus
[22] = Luminescence Cell-Based Dose Retest to Confirm Inhibitors of Cancer Stem Cells. [Related pubchem assays (depositor defined):AID2717, AID2721]; format: functional; settings: Homo sapiens
[23] = biological target: T8, RNA-editing ligase 1, mitochondrial (Trypanosoma brucei brucei, UniProt P86926); assay: inhibition of trypanosome RNA editing ligase – biochemical, fluorescence, Trypanosoma brucei, dose response (AID 1117295); format: functional
T8 sequence (P86926 whole entry): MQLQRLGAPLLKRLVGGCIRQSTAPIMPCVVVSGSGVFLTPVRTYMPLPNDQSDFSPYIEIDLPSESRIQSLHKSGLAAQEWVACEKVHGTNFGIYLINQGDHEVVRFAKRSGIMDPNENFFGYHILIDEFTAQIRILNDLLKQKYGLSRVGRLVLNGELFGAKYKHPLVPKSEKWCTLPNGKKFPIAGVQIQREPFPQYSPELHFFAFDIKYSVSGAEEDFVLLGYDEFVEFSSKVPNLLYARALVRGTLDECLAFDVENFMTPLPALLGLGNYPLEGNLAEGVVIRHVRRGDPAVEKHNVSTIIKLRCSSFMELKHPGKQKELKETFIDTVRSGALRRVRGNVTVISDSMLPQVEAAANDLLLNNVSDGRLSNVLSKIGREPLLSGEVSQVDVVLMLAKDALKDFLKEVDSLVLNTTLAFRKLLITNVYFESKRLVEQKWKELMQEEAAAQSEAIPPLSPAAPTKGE

[24] = biological target: T9, Microphthalmia-associated transcription factor (Homo sapiens, UniProt O75030); assay: reducers of TRPM1 reporter luminescence, concentration series – cell-based, SK-MEL-5, cherry-picked, set 3, MITF inhibitor project, dose response (AID 493073); format: functional;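 note: SK-MEL-5 melanoma cells with luciferase driven by the MITF target TRPM1 promoter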
T9 sequence (O75030 whole entry): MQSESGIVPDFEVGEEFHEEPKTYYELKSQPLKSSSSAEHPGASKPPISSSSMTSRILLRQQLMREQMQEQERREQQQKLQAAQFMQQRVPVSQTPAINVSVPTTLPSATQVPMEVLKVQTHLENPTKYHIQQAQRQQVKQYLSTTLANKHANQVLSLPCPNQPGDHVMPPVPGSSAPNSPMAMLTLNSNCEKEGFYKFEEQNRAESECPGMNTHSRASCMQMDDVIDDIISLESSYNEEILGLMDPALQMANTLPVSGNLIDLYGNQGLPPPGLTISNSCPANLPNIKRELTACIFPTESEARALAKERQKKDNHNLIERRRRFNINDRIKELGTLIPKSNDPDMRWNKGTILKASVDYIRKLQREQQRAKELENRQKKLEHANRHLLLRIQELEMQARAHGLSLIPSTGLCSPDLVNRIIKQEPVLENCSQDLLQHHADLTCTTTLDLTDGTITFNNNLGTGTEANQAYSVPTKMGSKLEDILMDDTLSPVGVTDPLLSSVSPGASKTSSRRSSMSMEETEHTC

Chain of Glyceraldehyde-3-phosphate dehydrogenase (P04406 whole entry): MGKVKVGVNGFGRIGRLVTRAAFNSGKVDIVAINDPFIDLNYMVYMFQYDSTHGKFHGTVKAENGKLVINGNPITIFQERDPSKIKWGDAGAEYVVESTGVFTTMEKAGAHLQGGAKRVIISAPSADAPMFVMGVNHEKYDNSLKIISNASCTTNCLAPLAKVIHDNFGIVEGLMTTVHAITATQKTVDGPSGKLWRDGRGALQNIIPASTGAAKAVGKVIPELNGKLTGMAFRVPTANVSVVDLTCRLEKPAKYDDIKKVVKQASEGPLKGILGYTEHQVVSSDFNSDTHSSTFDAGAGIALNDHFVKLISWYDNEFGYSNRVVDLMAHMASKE
Chain of Mitogen-activated protein kinase 10 (P53779 whole entry): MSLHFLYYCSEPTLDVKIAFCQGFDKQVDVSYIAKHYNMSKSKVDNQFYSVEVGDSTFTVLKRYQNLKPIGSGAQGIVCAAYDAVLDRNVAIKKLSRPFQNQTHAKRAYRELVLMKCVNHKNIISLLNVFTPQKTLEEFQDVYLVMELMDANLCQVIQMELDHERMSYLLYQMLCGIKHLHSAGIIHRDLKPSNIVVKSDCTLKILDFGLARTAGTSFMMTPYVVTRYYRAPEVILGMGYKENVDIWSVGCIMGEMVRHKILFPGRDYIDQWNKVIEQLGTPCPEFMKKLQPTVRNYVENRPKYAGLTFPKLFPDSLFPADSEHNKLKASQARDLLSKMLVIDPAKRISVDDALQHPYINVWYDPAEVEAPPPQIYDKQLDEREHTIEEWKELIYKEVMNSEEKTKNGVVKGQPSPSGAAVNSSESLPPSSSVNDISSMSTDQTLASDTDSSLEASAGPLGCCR

NC(=O)c1c(NC(=O)Cc2cccs2)sc2c1CCC2
IC50 [1]: 28.3 µM (not active)
IC50 (Protein Tat): > 100 µM (active)

O=P(O)(CN1CCCCCC1)CN1CCCCCC1
IC50 (Protein Tat): > 100 µM (active)

CCn1c(SCC(=O)c2ccccc2)nc2sc3c(c2c1=O)CCN(C)C3
EC50 [2]: < 0.1 µM (active)
EC50 [3]: > 60 µM (not active)
EC50 (cells [4]): 0.061 µM (active)

Cc1n[nH]c(C)c1S(=O)(=O)N1CCCC(C(=O)Nc2ccc3c(c2)OCCO3)C1 (centres undefined)
IC50 [5]: > 100 µM (not active)

O=C1C(Cl)=C(N2CCN(c3ccccc3Cl)CC2)C(=O)N1c1ccc(Cl)c(Cl)c1
IC50 [6]: > 100 µM (not active)
IC50 (Bcl-2-related protein A1 [7]): > 100 µM (not active)
IC50 (Bcl-2-related protein A1 [8]): > 100 µM (not active)

O=C(CSc1nnc(-c2ccc(Br)cc2)o1)Nc1cccc2ccccc12
EC50 [9]: > 150 µM (inconclusive)
EC50 [10]: > 38 µM (not active)
IC50 [11]: 14.3 µM (not active)
IC50 [12]: > 111 µM (not active)

CC1CCCN(C(=S)SCC(=O)c2cc(Br)cc(Br)c2O)C1 (centres undefined)
IC50 [13]: > 50 µM (not active)
IC50 (cells [14]): > 29.9 µM (inactive)
EC50 [15]: 0.732 µM (active)
IC50 [16]: 4.68 µM (active)
EC50 (cells [17]): > 29.9 µM (inactive)

O=C(c1ccncc1)N1CC(=O)N2[C@H](C1)[C@@H](c1ccc(-c3cccnc3)cc1)[C@@H]2CO
AC50 [18]: 0.188 µM (active)
AC50 [19]: < 0.3 µM (active)
AC50 [20]: 0.112 µM (active)
AC50 [21]: 0.161 µM (active)

C[C@@H]1CN([C@H](C)CO)C(=O)c2cc(NC(=O)Nc3ccc(C(F)(F)F)cc3)ccc2O[C@H]1CN(C)C(=O)Nc1cccc2ccccc12
AC50 [18]: 1.43 µM (active)
AC50 [19]: 1.68 µM (active)
AC50 [20]: 1.99 µM (active)
AC50 [21]: 2 µM (active)

Cc1ccc(NNC(=O)C(O)(c2cccc(C(F)(F)F)c2)c2cccc(C(F)(F)F)c2)cc1
CC50 (Vero): 29.8 µM (active)
AC50 [22]: 1.14 µM (active)

CN(Cc1nc(-c2cccnc2)no1)S(=O)(=O)c1ccc(Br)cc1
IC50 [5]: > 100 µM (not active)

CN1CCC(N[C@@H](Cc2ccccc2)C(=O)NCC(c2ccccc2)c2ccccc2)(C(=O)NC2CCCCC2)CC1
IC50 [23]: > 96.6 µM (inactive)

CC1CCN(C2CC(=O)N(c3ccc(Cl)c(Cl)c3)C2=O)CC1 (centres undefined)
IC50 [6]: > 100 µM (not active)
IC50 (Bcl-2-related protein A1 [7]): > 100 µM (not active)
IC50 (Bcl-2-related protein A1 [8]): > 100 µM (not active)

COc1ccc2nc(C)cc(NCc3cccc(C(F)(F)F)c3)c2c1
AC50 [24]: 18.2 µM (active)
IC50 [23]: > 96.6 µM (inactive)

O=C1C(Cl)=C(Cl)C(=O)N1c1ccc(Cl)nc1
IC50 [6]: > 100 µM (not active)
IC50 (Bcl-2-related protein A1 [7]): 33.8 µM (active)
IC50 (Bcl-2-related protein A1 [8]): > 100 µM (not active)
